Experiments:
HepG2 cells [1] = test: mRNA expression (PCR) after oleic acid treatment, HepG2 cells; assay type: cell-based, human; conditions: oleic acid 72 hours
Source text: (§1) It is known that, in the liver of obese mice, the expression and activity of PPARγ2 are increased, and the expression of a target gene thereof is increased. To form such an obese environment in an in vitro experiment, mRNA expression amounts of PPARγ2, and 14-3-3β and 14-3-3γ were checked through treatment with oleic acid (OA), which is a type of fatty acid.
(§2) HepG2 cells and primary mouse hepatocytes were separately seeded in a 6-well plate at a density of 4x10^5 cells per each well, and then treated with 200 μM of oleic acid (OA) for 72 hours. For mRNA extraction, the corresponding cells were lysed with 1 ml/well of TRIzol (Invitrogen), 200 μl of chloroform was added thereto and mixed well, the resultant cells were maintained at room temperature for 5 minutes and then centrifuged at 12,000×g and 4° C. for 15 minutes, the obtained supernatant was mixed with 500 μl of isopropanol and then put on ice for 10 minutes, the resulting supernatant was centrifuged at 12,000×g and 4° C. for 15 minutes to remove a supernatant, and then pellets were dissolved with tertiary distilled water treated with diethyl pyrocarbonate (DEPC). 2 μg of mRNA was synthesized into cDNA using a Superscript First Strand cDNA Synthesis Kit (Bioneer, Daejeon, South Korea) and the synthesized cDNA as a template was amplified through polymerase chain reaction (PCR) using primers specific to PPARγ2, 14-3-3β, 14-3-3γ, SREBP-1c, SCD-1, ACC, FABP, FAT/CD36, and (β-actin of humans, and was amplified through real-time PCR using primers specific to PPARγ2, 14-3-3β, 14-3-3γ, SREBP-1c, FAT/CD36, and GAPDH of mice. β-actin and GAPDH were used as controls to see whether mRNAs of the respective cells were compared in the same amount.

[2] = test system: primary mouse hepatocytes; test: mRNA expression (real-time PCR) after oleic acid treatment, primary mouse hepatocytes; assay type: cell-based; conditions: oleic acid 72 hours
Source text: as §1, §2

PPARγ2 and 14-3-3β = biological target: T1, PPARγ2 and 14-3-3β (Homo sapiens, UniProt P37231); test: GST-pull down assay, PPARγ2 / 14-3-3β binding with oleic acid treatment (HEK-293T); conditions: 200 μM oleic acid 72 hours; FIG. 8A
T1 construct: expressed in transfected cells; host or cells: HEK-293T
T1 sequence (P37231 1-505): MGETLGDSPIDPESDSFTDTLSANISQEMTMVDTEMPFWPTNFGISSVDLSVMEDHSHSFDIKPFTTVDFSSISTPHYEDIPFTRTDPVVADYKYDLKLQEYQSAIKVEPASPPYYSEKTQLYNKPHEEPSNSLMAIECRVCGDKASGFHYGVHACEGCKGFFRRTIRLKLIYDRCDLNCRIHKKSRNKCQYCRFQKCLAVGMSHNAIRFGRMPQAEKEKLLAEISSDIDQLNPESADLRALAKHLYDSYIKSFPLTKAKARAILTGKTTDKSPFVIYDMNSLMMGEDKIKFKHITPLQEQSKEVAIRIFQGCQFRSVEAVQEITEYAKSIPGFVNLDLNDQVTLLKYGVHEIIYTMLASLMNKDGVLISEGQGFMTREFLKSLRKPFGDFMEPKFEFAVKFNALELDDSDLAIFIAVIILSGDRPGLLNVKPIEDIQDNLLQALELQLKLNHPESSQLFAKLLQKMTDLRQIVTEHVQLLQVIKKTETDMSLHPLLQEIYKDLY
T1 sequence (P31946 1-246 partner): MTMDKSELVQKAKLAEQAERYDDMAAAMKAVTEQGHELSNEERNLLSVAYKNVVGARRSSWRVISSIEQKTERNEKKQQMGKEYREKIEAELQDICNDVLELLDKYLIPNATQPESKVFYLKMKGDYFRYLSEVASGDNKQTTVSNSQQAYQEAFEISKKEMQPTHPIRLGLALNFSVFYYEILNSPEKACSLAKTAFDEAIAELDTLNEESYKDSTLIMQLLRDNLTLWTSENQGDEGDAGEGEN
Description: (§3) HEK-293T cells were seeded in a 100 mm plate at a density of 2×10^6 cells per each well, and then transfected with mGST-PPARγ2DNA (4 μg) and HA-14-3-3β DNA (4 μg) or HA-14-3-3γ DNA (4 μg) using an E-fection plus reagent (Lugen). A ratio of DNA to the E-fection plus reagent was 1:2, and this method was performed according to a manufacturer's manual. After transfection, the cells were treated with 200 μM of oleic acid (OA) for 72 hours, washed with ice-cold PBS, and lysed with 500 μl/well of a lysis buffer (150 mM NaCl, 1 mM EDTA, 1% Nonidet P-40, 5% glycerol, 25 mM tris-HCl, pH 7.5, protease inhibitor added), the lysed cells were centrifuged at 10,000×g and 4° C. for 10 minutes to extract proteins, 1,000 μg of the proteins was reacted with 20 μl of glutathione Sepharose 4B beads (GE Healthcare, Buckinghamshire, UK) for 6 hours, washing of the beads with 1 ml of ice-cold PBS was repeated 5 times, the resulting beads were boiled at 100° C. for 10 minutes, and the proteins were separated on a 10% SDS-PAGE gel and identified using each of the antibodies (GST, HA: Santa Cruz) by western blotting, and all antibodies were used in a ratio of 1:3000.

PPARγ2 and 14-3-3γ = biological target: T2, PPARγ2 and 14-3-3γ (Homo sapiens, UniProt P37231); test: GST-pull down assay, PPARγ2 / 14-3-3γ binding with oleic acid treatment (HEK-293T); conditions: 200 μM oleic acid 72 hours; FIG. 8B
T2 construct: expressed in transfected cells; host or cells: HEK-293T
T2 sequence (P37231 1-505): T1 sequence (P37231 1-505)
Description: as §3

HepG2 cells [3] = test: Oil Red-O lipid accumulation, HepG2 cells; assay type: cell-based; conditions: concentration-dependent treatment of oleic acid, FIG. 9A
Description: (§4) HepG2 cells and primary mouse hepatocytes were separately seeded in a 6-well plate at a density of 4×10^5 cells per each well, and then transfected with GFP-14-3-3β DNA (1 μg) or GFP-14-3-3γ DNA (1 μg) and si-14-3-3β (10 μM, Santa Cruz) or si-14-3-3γ (10 μM, Santa Cruz) using an E-fection plus reagent (Lugen). A ratio of DNA to the E-fection plus reagent was 1:2, and this method was performed according to a manufacturer's manual. […] The stained cells were bleached with 1 ml of isopropanol and analyzed at a wavelength of 550 nm using a DU530 spectrophotometer (Beckman Instruments, Palo Alto, Calif.).

[4] = test system: primary mouse hepatocytes; test: Oil Red-O lipid accumulation, primary mouse hepatocytes; assay type: cell-based; conditions: concentration-dependent treatment of oleic acid, FIG. 9A
Description: as §4

[5] = test system: primary mouse hepatocytes; test: Triglyceride colorimetric assay, primary mouse hepatocytes; assay type: cell-based; conditions: primary mouse hepatocytes treated with oleic acid (200 μM, 72 hours); FIG. 10A
Description: A triglyceride (neutral fat) is a type of fatty acid and is used as an index of a fat content. A biochemical lipid test was carried out by measuring an amount of triglycerides. HepG2 cells and primary mouse hepatocytes were separately seeded in a 6-well plate at a density of 4×10^5 cells per each well, and then transfected with GFP-14-3-3β DNA (1 μg) or GFP-14-3-3γ DNA (1 μg) and si-14-3-3β (10 μM, Santa Cruz) or si-14-3-3γ (10 μM, Santa Cruz) using an E-fection plus reagent (Lugen). A ratio of DNA to the E-fection plus reagent was 1:2, and this method was performed according to a manufacturer's manual. After transfection, the cells were treated with 200 μM of oleic acid (OA) for 72 hours, and the amount of triglycerides was measured using a triglyceride colorimetric assay kit (Cayman Chemical). The corresponding cells were washed with ice-cold PBS and then scraped using a standard diluent assay reagent, the scrapping process was repeated using a sonicator 20 times to lyse the cells, and the lysed cells were reacted with an enzyme buffer solution for 15 minutes, followed by measurement using an ELISA reader (Bio-Rad Laboratories, Inc) at a wavelength of 550 nm.

CCCCCCCC/C=C\CCCCCCCC(=O)O [oleic acid]
mRNA expression amount of 14-3-3β (HepG2 cells [1]; FIG. 6A): no changes
mRNA expression amount of 14-3-3γ (HepG2 cells [1]; FIG. 6A): no changes
mRNA expression of PPARγ2 (HepG2 cells [1]; FIG. 6A): increased in an oleic acid concentration-dependent manner
mRNA expression of lipid metabolism-associated genes (PPARγ2 target genes) (HepG2 cells [1]; FIG. 6C): also increased in an oleic acid concentration-dependent manner
mRNA expression amount of 14-3-3β ([2]; FIG. 6B): no changes
mRNA expression amount of 14-3-3γ ([2]; FIG. 6B): no changes
mRNA expression of PPARγ2 ([2]; FIG. 6B): increased in an oleic acid concentration-dependent manner
mRNA expression of lipid metabolism-associated genes (PPARγ2 target genes) ([2]; FIG. 6D): also increased in an oleic acid concentration-dependent manner
binding between PPARγ2 and 14-3-3β (PPARγ2 and 14-3-3β): increased
binding between PPARγ2 and 14-3-3γ (PPARγ2 and 14-3-3γ): reduced
lipid accumulation (Oil Red-O) (HepG2 cells [3]): lipid accumulation was increased
lipid accumulation (Oil Red-O) [4]: lipid accumulation was increased
triglyceride accumulation [5]: triglyceride accumulation was increased
